Measured values as given in ChEMBL document CHEMBL3991601, “The target landscape of clinical kinase drugs” (Science, 2017).
Activity calls are given as the source filed them.

Assays:
[1] = biological target: T1, Mitogen-activated protein kinase kinase kinase 6 (Homo sapiens, UniProt O95382)
T1 sequence (O95382 whole entry): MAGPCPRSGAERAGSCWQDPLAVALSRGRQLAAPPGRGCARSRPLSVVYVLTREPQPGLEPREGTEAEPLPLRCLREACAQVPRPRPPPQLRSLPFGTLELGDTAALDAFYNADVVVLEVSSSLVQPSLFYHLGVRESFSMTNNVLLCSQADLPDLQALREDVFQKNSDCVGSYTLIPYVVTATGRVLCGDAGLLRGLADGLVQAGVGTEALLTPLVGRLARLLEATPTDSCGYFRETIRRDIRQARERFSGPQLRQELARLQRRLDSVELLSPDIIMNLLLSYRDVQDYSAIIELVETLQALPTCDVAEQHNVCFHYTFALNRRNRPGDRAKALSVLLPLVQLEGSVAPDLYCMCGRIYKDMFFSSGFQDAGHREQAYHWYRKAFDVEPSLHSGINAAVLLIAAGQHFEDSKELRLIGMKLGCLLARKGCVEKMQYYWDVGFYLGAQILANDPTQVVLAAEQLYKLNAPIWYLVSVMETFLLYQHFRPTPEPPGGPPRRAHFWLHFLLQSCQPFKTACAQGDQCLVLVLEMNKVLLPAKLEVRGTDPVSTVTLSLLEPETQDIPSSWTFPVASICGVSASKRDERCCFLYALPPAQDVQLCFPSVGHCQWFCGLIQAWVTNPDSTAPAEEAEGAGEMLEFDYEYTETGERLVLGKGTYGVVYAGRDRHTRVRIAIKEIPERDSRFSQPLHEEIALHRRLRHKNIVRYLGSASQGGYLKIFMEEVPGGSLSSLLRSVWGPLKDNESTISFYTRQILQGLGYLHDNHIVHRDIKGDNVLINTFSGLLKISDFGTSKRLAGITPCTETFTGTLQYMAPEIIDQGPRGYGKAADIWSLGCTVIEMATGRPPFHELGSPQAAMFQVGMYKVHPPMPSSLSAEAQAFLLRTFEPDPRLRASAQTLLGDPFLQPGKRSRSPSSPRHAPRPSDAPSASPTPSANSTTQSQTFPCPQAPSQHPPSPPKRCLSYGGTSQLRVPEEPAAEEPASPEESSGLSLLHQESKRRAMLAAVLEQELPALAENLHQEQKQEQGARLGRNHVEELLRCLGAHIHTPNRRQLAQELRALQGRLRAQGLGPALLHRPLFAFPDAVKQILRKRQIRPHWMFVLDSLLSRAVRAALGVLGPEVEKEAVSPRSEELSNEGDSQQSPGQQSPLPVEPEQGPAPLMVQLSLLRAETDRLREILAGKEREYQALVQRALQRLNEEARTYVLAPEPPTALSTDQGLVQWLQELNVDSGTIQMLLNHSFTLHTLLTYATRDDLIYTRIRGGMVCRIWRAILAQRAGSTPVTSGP

Ephrin type-B receptor 3 = biological target: T2, Ephrin type-B receptor 3 (Homo sapiens, UniProt P54753)
T2 sequence (P54753 whole entry): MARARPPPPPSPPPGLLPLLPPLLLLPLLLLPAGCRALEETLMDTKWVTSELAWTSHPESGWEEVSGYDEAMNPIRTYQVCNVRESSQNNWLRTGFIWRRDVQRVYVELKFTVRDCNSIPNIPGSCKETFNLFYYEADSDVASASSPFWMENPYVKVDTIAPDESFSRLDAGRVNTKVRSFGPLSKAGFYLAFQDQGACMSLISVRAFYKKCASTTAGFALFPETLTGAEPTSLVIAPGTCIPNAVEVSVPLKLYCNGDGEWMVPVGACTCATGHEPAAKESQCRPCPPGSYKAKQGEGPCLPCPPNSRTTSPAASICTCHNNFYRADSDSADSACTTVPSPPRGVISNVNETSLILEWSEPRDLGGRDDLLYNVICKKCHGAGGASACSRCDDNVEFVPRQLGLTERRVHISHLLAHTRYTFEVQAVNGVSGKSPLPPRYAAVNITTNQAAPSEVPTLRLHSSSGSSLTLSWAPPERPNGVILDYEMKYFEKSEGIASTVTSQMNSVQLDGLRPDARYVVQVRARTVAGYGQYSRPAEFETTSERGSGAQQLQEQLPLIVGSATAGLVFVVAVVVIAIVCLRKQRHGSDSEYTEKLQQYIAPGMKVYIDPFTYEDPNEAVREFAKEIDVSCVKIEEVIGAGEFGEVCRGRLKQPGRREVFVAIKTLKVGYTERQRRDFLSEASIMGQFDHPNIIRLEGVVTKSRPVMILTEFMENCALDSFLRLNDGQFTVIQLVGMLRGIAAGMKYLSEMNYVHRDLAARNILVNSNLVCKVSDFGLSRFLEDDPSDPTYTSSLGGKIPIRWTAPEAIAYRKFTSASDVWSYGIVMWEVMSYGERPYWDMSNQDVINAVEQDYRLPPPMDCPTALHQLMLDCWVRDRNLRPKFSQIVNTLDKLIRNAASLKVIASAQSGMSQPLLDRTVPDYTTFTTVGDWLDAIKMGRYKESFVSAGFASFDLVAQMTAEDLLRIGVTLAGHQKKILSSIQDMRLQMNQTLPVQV

[2] = biological target: Protein kinase C delta type (Homo sapiens, UniProt Q05655)
[3] = biological target: T3, General transcription and DNA repair factor IIH helicase subunit XPD (Homo sapiens, UniProt P18074); conditions: read-out: Kd apparent; k-562, colo 205, sk-n-be(2) and mv-4-11
T3 sequence (P18074 whole entry): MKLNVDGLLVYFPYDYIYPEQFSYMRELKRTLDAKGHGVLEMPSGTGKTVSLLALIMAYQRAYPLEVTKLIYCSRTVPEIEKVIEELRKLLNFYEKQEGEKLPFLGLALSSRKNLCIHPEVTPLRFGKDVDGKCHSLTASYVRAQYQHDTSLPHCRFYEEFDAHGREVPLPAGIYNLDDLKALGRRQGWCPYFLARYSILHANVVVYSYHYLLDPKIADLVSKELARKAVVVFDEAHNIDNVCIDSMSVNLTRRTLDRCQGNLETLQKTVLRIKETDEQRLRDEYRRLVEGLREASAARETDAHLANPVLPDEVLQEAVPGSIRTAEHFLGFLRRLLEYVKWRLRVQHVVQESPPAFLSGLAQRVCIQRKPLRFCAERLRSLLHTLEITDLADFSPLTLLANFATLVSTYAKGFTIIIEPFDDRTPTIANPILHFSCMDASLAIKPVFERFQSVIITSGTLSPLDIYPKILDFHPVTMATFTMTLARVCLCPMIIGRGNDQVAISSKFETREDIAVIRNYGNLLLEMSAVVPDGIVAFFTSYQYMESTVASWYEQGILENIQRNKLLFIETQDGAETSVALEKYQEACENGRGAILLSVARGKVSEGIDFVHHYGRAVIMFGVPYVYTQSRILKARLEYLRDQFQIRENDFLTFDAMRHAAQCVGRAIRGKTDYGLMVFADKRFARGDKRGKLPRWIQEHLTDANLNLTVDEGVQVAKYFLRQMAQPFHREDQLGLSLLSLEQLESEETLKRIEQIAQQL

Measured: Kd
Also: in the data inactive means no Kd found up to 30 µM.

Chain of Protein kinase C delta type (Q05655 whole entry): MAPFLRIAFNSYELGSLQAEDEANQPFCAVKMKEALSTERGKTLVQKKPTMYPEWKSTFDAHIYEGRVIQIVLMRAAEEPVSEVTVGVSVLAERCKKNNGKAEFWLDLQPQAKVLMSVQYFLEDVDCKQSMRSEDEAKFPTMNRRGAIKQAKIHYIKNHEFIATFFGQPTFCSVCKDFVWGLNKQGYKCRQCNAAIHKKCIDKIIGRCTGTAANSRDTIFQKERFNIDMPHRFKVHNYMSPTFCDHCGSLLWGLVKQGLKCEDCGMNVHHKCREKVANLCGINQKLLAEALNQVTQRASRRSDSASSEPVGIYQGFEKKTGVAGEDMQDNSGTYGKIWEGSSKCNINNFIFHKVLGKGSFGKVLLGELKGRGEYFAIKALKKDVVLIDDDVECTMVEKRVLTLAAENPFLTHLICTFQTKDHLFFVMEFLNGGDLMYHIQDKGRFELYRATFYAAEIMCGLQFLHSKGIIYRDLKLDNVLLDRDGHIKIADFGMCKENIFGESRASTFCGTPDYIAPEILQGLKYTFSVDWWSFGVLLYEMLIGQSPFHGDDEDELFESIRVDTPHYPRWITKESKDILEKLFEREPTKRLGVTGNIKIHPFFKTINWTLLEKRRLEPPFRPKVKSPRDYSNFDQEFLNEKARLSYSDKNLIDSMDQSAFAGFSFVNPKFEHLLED

Cc1cc(C(=O)Nc2cc(Oc3ccc4nc(NC(=O)C5CC5)cn4n3)ccc2C)n(C)n1 [TAK-593]
inactive: [1] > 30 µM | Ephrin type-B receptor 3 > 30 µM | [2] > 30 µM | [3] > 30 µM

Cn1c(=O)c(F)c(Nc2ccc(I)cc2F)c2c(=O)n(C[C@@H](O)CO)cnc21 [TAK-733]
inactive: [1] > 30 µM | Ephrin type-B receptor 3 > 30 µM | [2] > 30 µM | [3] > 30 µM

O[C@H]1CC[C@H](Nc2ncc3nc(Nc4c(F)cc(F)cc4F)n([C@H]4CCOC4)c3n2)CC1 [TANZISERTIB]
inactive: [1] > 30 µM | Ephrin type-B receptor 3 > 30 µM | [2] > 30 µM | [3] > 30 µM

CNC(=O)c1cc(COc2nnc(Nc3ccc(Cl)cc3)c3ccoc23)ccn1 [TELATINIB]
inactive: [1] > 30 µM | Ephrin type-B receptor 3 > 30 µM | [2] > 30 µM | [3] > 30 µM

Cc1cc(-c2cc(OC(=O)c3ccccc3)ccc2Cl)cc2nnc(Nc3ccc(OCCN4CCCC4)cc3)nc12 [TG100-801]
inactive: [1] > 30 µM | Ephrin type-B receptor 3 > 30 µM | [2] > 30 µM | [3] > 30 µM

C[C@@H]1COC(Nc2ccc3ncnc(Nc4ccc(OCc5nccs5)c(Cl)c4)c3c2)=N1 [VARLITINIB]
inactive: [1] > 30 µM | Ephrin type-B receptor 3 > 30 µM | [2] > 30 µM | [3] > 30 µM

CNC(=O)c1cccc(-c2ccc3c(N4CCOC[C@@H]4C)nc(N4CCOC[C@@H]4C)nc3n2)c1 [VISTUSERTIB]
inactive: [1] > 30 µM | Ephrin type-B receptor 3 > 30 µM | [2] > 30 µM | [3] > 30 µM

NC(=O)c1ccc(N(C(N)=O)c2c(F)cccc2F)nc1-c1ccc(F)cc1F [VX-702]
inactive: [1] > 30 µM | Ephrin type-B receptor 3 > 30 µM | [2] > 30 µM | [3] > 30 µM

COc1cc2ncnc(Nc3ccc(O)cc3)c2cc1OC [WHI-P131]
inactive: [1] > 30 µM | Ephrin type-B receptor 3 > 30 µM | [2] > 30 µM | [3] > 30 µM
